Data from US8222187B2, “Method for improving the phytoremediation of polluted sites by providing plants with exogenous carbohydrates” (Universite de Rennes 1, priority 2003, dated 2012).

Experiments:
Arabidopsis thaliana [1] = assay: Length of the primary roots of Arabidopsis thaliana after 15 days of culture on agar medium; assay type: in vivo
Protocol: (§1) Arabidopsis thaliana seeds (Wassilewskija ecotype) were sterilised at the surface according to the standard protocol and then rinsed with absolute ethanol and dried for one night.
(§2) These seeds were cultivated in Petri dishes on a culture medium of Murashige and Skoog (adjusted to a pH of 5.7) containing agar (0.8%). The Petri dishes were stored for 48 h at 4° C. then transferred to 22° C. under a photoperiod of 16 hours per day at 4500 lux. The sucrose and glucose were added to the culture medium, while no sugar was added for the controls.
(§3) A growth parameter (length of the primary roots) and the pigment levels (chlorophylls and carotenoids) were measured after 15 days of culture. The atrazine levels in the plants were also measured after one month of culture.

photosystem II = molecular target: T1, photosystem II (Arabidopsis thaliana, UniProt P83755); assay: Activity of photosystem II monitored by chlorophyll fluorescence; assay type: in vivo; details: increasing sucrose (10 mM, 80 mM), atrazine 0.25 μM and 1 μM (lethal or sublethal doses without sucrose)
T1 construct: from tissue; host or cells: whole Arabidopsis thaliana plants grown on culture medium
Protocol: In another experiment series, Arabidopsis thaliana plants were cultivated in the culture medium described above in the absence of sucrose and in the presence of 10 mM and 80 mM of sucrose, and in the absence of atrazine and in the presence of 0.25 μM and 1 μM of atrazine. […] The activity of photosystem II is monitored by measuring the fluorescence of the chlorophylls.

Arabidopsis thaliana [2] = assay: Arabidopsis culture on humus contaminated with atrazine; assay type: in vivo; details: humus with 10 μM atrazine; sucrose applied to the surface as a 3% solution
Protocol: Atrazine concentrations were also measured in the plants and the culture medium using conventional methods of extraction with solvents and high-performance liquid chromatography analysis with UV detection. The atrazine was extracted in a methanol and water mixture (4:1, v/v). After centrifugation, the supernatants were filtered on filters of 0.45 μm and the organic solvents were evaporated at 40° C. SPE cartridges were activated by washing with 5 mL or methanol then 5 mL of water. Each sample was applied to a column and the columns were then washed. The atrazine was eluted with 2 mL of dichloromethane. The organic solvents were then evaporated and the dry residues were dissolved in 500 μL of a methanol and water mixture (1:1). The samples were then analysed by HPLC with UV detection. In additional experiments, Arabidopsis thaliana was also cultivated on a humus contaminated at a concentration of 10 μM of atrazine in the absence of sucrose and in the presence of sucrose applied to the surface in the form of a 3% solution. The cultures obtained are shown in FIG. 11, in which the left-hand container corresponds to the culture in the presence of sucrose and the right-hand container corresponds to the culture in the absence of sucrose.

superoxide ion = assay: Superoxide ion production of the plants; assay type: in vivo, Arabidopsis thaliana; details: 10 mM sucrose
Protocol: In addition, the superoxide ion production of the plants was tested according to the method of Fryer et al. (2002 Imaging of photo-oxidative stress responses in leaves—J. Exp. Bot. 53: 1249-1254).

[3] = system: D1 protein of photosystem II; assay: D1 protein levels by Dot Blot and Western Blot; assay type: in vivo, Arabidopsis thaliana
Protocol: In another experiment series, Arabidopsis thaliana plants were cultivated in the culture medium described above in the absence of sucrose and in the presence of 10 mM and 80 mM of sucrose, and in the absence of atrazine and in the presence of 0.25 μM and 1 μM of atrazine. To measure the levels of D1 protein (31-kD monomer and 21.5-kD by-products), the membrane proteins of the plants were isolated according to the method of Pilgrim et al. (1998 Plant. J. 13 2-77-186). The levels of the total concentration of the target protein, D1 protein of photosystem II, were measured by Dot Blot analysis. Then, the different forms were analysed by gel electrophoresis separation under denaturing and Western Blot conditions.

Arabidopsis thaliana [4] = assay: Photosynthetic pigment levels (chlorophylls and carotenoids) after 15 days of culture; assay type: in vivo
Protocol: as §1, §2, §3
The photosynthetic pigments (chlorophylls and carotenoids) were extracted by grinding the aerial portions of the plants in 80% acetone and by measuring the absorbance of the extracts corresponding to 663 nm, 646 nm and 470 nm. The levels of these pigments were expressed in μg/mL and determined according to the method of Lichtenthaler et al. (1983 Biochem. Soc. Trans. 11, 591-592).

[5] = absence of sugars in the culture medium

With `OC[C@H]1O[C@@](CO)(O[C@H]2O[C@H](CO)[C@@H](O)[C@H](O)[C@H]2O)[C@@H](O)[C@@H]1O` [sucrose] the “increase in root growth at higher atrazine concentrations, sucrose compared with glucose” value (Arabidopsis thaliana [1]; 80 mM sugar) was “greater in the presence of sucrose than in the presence of glucose”, the “effect on activity of photosystem II” value (photosystem II) was “contribute to maintaining the activity of photosystem II” and the “seedlings on contaminated humus with sucrose compared with no sucrose” value (Arabidopsis thaliana [2]) was “more numerous and larger”. For the same molecule, the “effect of sucrose on production of active oxygen species such as the superoxide ion” value (superoxide ion; in the presence of atrazine) was “does not prevent the production”, the “effect on D1 protein and by-products (Western Blot)” value ([3]; 10 mM sucrose, 1 μM atrazine) was “The same effect was observed” and the “effect on D1 protein and by-products (Western Blot)” value ([3]; 80 mM sucrose, 1 μM atrazine) was “causes a decrease in the D1 protein”. The “effect on monomer of the D1 protein (Western Blot)” value ([3]; 80 mM sucrose, atrazine concentrations at which the monomer disappears without sucrose) was “maintain a sufficient amount of monomer of the D1 protein”, the “effect on D1 protein (Western Blot)” value ([3]; high sucrose concentrations, absence of atrazine) was “decrease in D1 protein production” and the “effect on D1 protein and by-products (Western Blot)” value ([3]; sucrose in the culture medium, 0.25 μM atrazine) was “greater accumulation of the D1 protein and its by-products”.

For `CCNc1nc(Cl)nc(NC(C)C)n1` [atrazine, 2-chloro-4-ethylamino-6-isopropylamine-1,3,5-triazine], the “effect on the length of the primary roots” value (Arabidopsis thaliana [1]; 1 to 10 μM atrazine, in the presence of 80 mM sucrose or 80 mM glucose) was “inhibiting but non-lethal effect”, the IC50 (Arabidopsis thaliana [1]; Arabidopsis thaliana, absence of sugars in the culture medium, hyperbolic regression curve (R^2=0.93), read-out: I50 for the atrazine inhibition of primary root length) was 120 nM and the “concentration at which inhibition of root development is complete, with discolouring and death of the plants” value (Arabidopsis thaliana [1]; [5]) was 500 nM. For the same molecule, the “effect on root growth” value (Arabidopsis thaliana [1]; atrazine concentrations higher than 10 μM, in the presence of 80 mM sucrose or 80 mM glucose) was “paradoxically enable the root growth to improve”, the “effect on superoxide ion production” value (superoxide ion; increasing atrazine levels) was “appears to increase in the presence of atrazine” and the “concentration at which chlorophylls and carotenoids disappear completely” value (Arabidopsis thaliana [4]; [5]) was 500 nM. The “effect on levels of chlorophylls and carotenoids in the leaves” value (Arabidopsis thaliana [4]; in the presence of 80 mM sucrose or 80 mM glucose) was “the production of these pigments is not suppressed” and the “effect on D1 protein (Dot Blot, all D1 proteins)” value ([3]; 1 μM atrazine, plants not cultivated in the presence of sucrose) was “causes the disappearance of the D1 protein”.
